Test results from patent US5786324A, “Synthetic peptides with bactericidal activity and endotoxin neutralizing activity for gram negative bacteria and methods for their use” (priority 1994, dated 1998).
Where two headings read alike, the source gives them in different places. No end group written: not given here.

What was measured:
[1] = test system: Pseudomonas aeruginosa type 1; format: cell-based; details: for Effective Dose Bactericidal pH 5.6 P. aeruginosa Molar Concentration: Table 5
Description: Bactericidal activity can be evaluated against a variety of bacteria such as Pseudomonas spp including aeruginosa and P. cepacia, E. coli B, and Staphylococcus aureus. The preferred organism is P. aeruginosa. Bactericidal activity is determined by identifying the effective dose for killing as the molar concentration of the peptide which results in at least a 60% killing of the bacteria, as determined by standard methods. Preferably, the peptide has an effective dose at a concentration of about 1×10^-4 M to about 1×10^-10 M, and more preferably 1×10^-7 M to 1×10^-9M . […] The effective dose for bactericidal activity of B/PI is seen at about […] . Bactericidal activity can also be determined by calculating a lethal dose 50 (LD50) using standard methods. The LD50 is that amount of peptide or protein that kills 50% of the bacteria when measured using standard dose response methods. A bactericidal peptide preferably has an LD50 of about 10^-4 M to about 10^-9 M , more preferably about 10^-7 to 10^-9 M .
(§1) The synthetically produced peptides were assayed for bactericidal activity against Pseudomonas aeruginosa, type 1, P. cepacia ATCC 25608, E. coli B, and Staphylococcus aureus 502A by standard methods.
(§2) Pseudomonas aeruginosa type 1 is a clinical isolate maintained in the laboratory since 1972. The isolate remains a smooth strain and was serotyped by the scheme of Homma. Homma, Jpn. J. Exp. Med., 46:329 (1976). A rough strain E. coli B and S. aureus 502A were obtained from Paul Quie, University of Minnesota. The characteristics of the S. aureus strain have been described in Shinefield et al., Amer. J. Dis. Chil., 105:646 (1963). Pseudomonas cepacia ATCC 25608 was purchased from the American Type Culture Collection in 1980. S. aureus and E. coli were maintained on nutrient agar plates and the Pseudomonas strains were maintained on blood agar plates.
(§3) Pyrogen-free solutions were used throughout this assay and all methods which follow. Log phase bacteria were prepared from a culture in brain heart infusion broth as previously described except that bacteria were washed and resuspended in saline with adjustment to an optical density at 650 nm which would yield 3×10^8 CFU/ml. Bacteria were then diluted 1:10 in 0.08M citrate phosphate buffer, pH 5.6 or pH 7.0, for use in the assay. S. aureus rapidly lost viability in the pH 5.6 buffer and was studied only at pH 7.0. Bactericidal activity was determined by dose response and where an LD50 is indicated, it was determined by linear regression.

[2] = test system: E. coli 055: B5 LPS; test: Limulus amoebocyte lysate assay, neutralization of endotoxin; format: biochemical; details: for Effective Dose Endotoxin Neutralization (Molar Concentration): Table 8, LAL
Text: The peptide selected can also have endotoxin neutralizing activity. […] Endotoxin neutralizing activity can also be measured by calculating an inhibitory dose 50 […] using standard does response methods. An inhibitory dose 50 is that amount of peptide that can inhibit 50% of the activity of endotoxin. Endotoxin activity can also be measured by determining the amount of release of tumor necrosis factor alpha (TNFα) from a macrophage cell line or by evaluating the symptoms of shock in animals. Peptides preferably neutralized endotoxin at a molar concentration of about 1×10^-4 M to about 10^-8 M , more preferably about 10^-5 M to about 10^-6 M .
The ability of synthetic peptides to neutralize endotoxin was detected with the E-TOXATE kit manufactured by Sigma Chemicals, St. Louis, Mo. […] Peptide was incubated with LPS at room temperature for 10 minutes in 100 μl of a 1:2 dilution of pyrogen-free saline, pH 6.4. The reaction was started by addition of 100 μl of amoebocyte lysate and the final volume was 200 μl.
^a The dose of peptide required to inhibit clotting of LAL by 100%.
Each tube contained 0.04 endotoxin units of E. coli LPS.

[3] = test system: E. coli B; test: Bactericidal assay, E. coli B; format: cell-based; details: E. coli B, pH 5.6, 3.0 × 10^-5 M
Description: as §1, §2, §3

[4] = test system: Human lung fibroblasts; test: Toxicity for human lung fibroblasts, trypan blue exclusion; format: cell-based; details: 30 minutes; for Percent Viability DMEM: DMEM plus 10% FCS; for Percent Viability PBS: pH 7.4
Description: The synthetic peptides were assayed for toxicity to cultured eukaryotic cells. Human lung fibroblasts were grown in monolayers in Dulbecco's Modified Eagles' Medium (DMEM) with 10% fetal calf serum (FCS) and originated as primary cultures of lung mesenchymal cells. The cells were trypsinized, washed with either DMEM plus FCS or phosphate-buffered saline (PBS), pH 7.4, and incubated with peptide at a final cell concentration of 1×10^7 /ml. Nine volumes of cell suspension were diluted with one volume of 0.4% trypan blue and the cells were counted with a hemocytometer, while also determining the fraction of cells which were increased in permeability to dye. There was no significant loss of cell number due to exposure of the fibroblasts to peptide.
^a Viability was determined by trypan blue exclusion following
incubation of cells with peptide for 30 minutes in DMEM plus 10% FCS or i

[5] = P. aeruginosa, pH 5.6, 1.5 × 10^-5 M
[6] = P. aeruginosa, pH 5.6, 3.0 × 10^-5 M
[7] = P. aeruginosa, pH 5.6, 3.0 × 10^-6 M
[8] = P. aeruginosa, pH 5.6, 1.2 × 10^-4 M

Compound	Effective Dose Bactericidal pH 5.6 P. aeruginosa Molar Concentration ([1]; pH 5.6)	Effective Dose Endotoxin Neutralization (Molar Concentration) [2]	further results
cnanikisgkwkaqkrflkmsgnfdlsic [Peptide 23]	3 × 10^-7 M	30 µM	% Killing of 5 × 10^6 Bacteria ([1]; P. aeruginosa, pH 5.6, 3 × 10^-7 M): 67%
kkkwfrlakq [Peptide 21]	1.5 × 10^-5 M	-- (not active at concentrations of 4.5 × 10^-4 M or less)	% Killing of 5 × 10^6 Bacteria [1, 5]: 71%; bacterial killing activity compared with parent peptide (in words) ([1]; pH 5.6, P. aeruginosa): retained biological activity
iktkkflkkt [Peptide 24, reference compound]	3.0 × 10^-5 M	-- (not active at concentrations of 4.5 × 10^-4 M or less)	% Killing of 5 × 10^6 Bacteria [1, 6]: 72%
ckwkaqkrflkc (CKWKAQKRFLKC; not fully specified (bridges); also: cyclic, kind and places of ring not given here) [Peptide 20a]	3.0 × 10^-6 M	-- (not active at concentrations of 4.5 × 10^-4 M or less)	% Killing of 5 × 10^6 Bacteria [1, 7]: 76%
flkmsgnfdl [Peptide 34]	-- (not active at concentrations of 1.2 × 10^-4 M or less)	750 µM	
ktkckflkkc [Peptide 25, reference compound]	6.0 × 10^-6 M	-- (not active at concentrations of 4.5 × 10^-4 M or less)	% Killing of 5 × 10^6 Bacteria ([1]; P. aeruginosa, pH 5.6, 6.0 × 10^-6 M): 56%
CC(C)C[C@H](NC(=O)[C@H](Cc1ccccc1)NC(=O)[C@H](CCCNC(=N)N)NC(=O)[C@H](CCCCN)NC(=O)[C@H](CCC(N)=O)NC(=O)[C@H](C)NC(=O)[C@H](CCCCN)NC(=O)[C@H](Cc1c[nH]c2ccccc12)NC(=O)[C@@H](N)CCCCN)C(=O)N[C@@H](CCCCN)C(=O)O [Peptide 5, kwkaqkrflk]			% Killing of 5 × 10^6 Bacteria ([1]; type 1, 1.5e-5 M, pH 5.6): 75%; LD50 for P. aeruginosa ([1]; type 1, pH 5.6): 8.2 µM; % Killing of 5 × 10^6 Bacteria ([3]; listed as #90-99): 31%; Percent Viability DMEM ([4]; 1.5 × 10^-4 M): 98.0%; Percent Viability PBS ([4]; 1.5 × 10^-4 M): 89.4%
sdsflkikhlgkghysfysmdirefq [Peptide 12]	1.5 × 10^-5 M	75 µM	% Killing of 5 × 10^6 Bacteria [1, 5]: 58%
kisgkwkaqkrflkmsgnf [Peptide 35]	1.5 × 10^-7 M	450 µM	% Killing of 5 × 10^6 Bacteria ([1]; P. aeruginosa, pH 5.6, 1.5 × 10^-7 M): 58%; neutralization of endotoxin in the LAL (in words) ([2]; highest concentration tested 4.5×10^-4 M): did not neutralize endotoxin
kkkafrlakq [Peptide 28]	3.0 × 10^-5 M	-- (not active at concentrations of 4.5 × 10^-4 M or less)	% Killing of 5 × 10^6 Bacteria [1, 6]: 68%; bacterial killing activity compared with parent peptide (in words) ([1]; pH 5.6, P. aeruginosa): little or no effect
kwkaqkrflkc [Peptide 20b]	3.0 × 10^-6 M	-- (not active at concentrations of 4.5 × 10^-4 M or less)	% Killing of 5 × 10^6 Bacteria [1, 7]: 75%
ckisgkwkaqkrflkmsgnfc [Peptide 36]	1.2 × 10^-4 M	750 µM	% Killing of 5 × 10^6 Bacteria [1, 8]: 39%
kkkffrlakq [Peptide 27]	3.0 × 10^-5 M	-- (not active at concentrations of 4.5 × 10^-4 M or less)	% Killing of 5 × 10^6 Bacteria [1, 6]: 49%; bacterial killing activity compared with parent peptide (in words) ([1]; pH 5.6, P. aeruginosa): little or no effect
wkkfkqralk [Peptide 19]	1.2 × 10^-4 M	-- (not active at concentrations of 4.5 × 10^-4 M or less)	% Killing of 5 × 10^6 Bacteria [1, 8]: 65%; bactericidal activity, fold reduced versus the 90-99 peptide ([1]; pH 5.6, randomized sequence): 8 fold
anikisgkwk [Peptide 31]	3.0 × 10^-5 M	220 µM	% Killing of 5 × 10^6 Bacteria [1, 6]: 53%
msgnfdlsie [Peptide 29]	-- (not active at concentrations of 1.2 × 10^-4 M or less)	220 µM	
CEFYSENHHNPKWKAQKRFLK [Peptide 17, cefysenhhnpkwkaqkrflk]			% Killing of 5 × 10^6 Bacteria ([1]; type 1, 3.0e-6 M, pH 5.6): 74%; % Killing of 5 × 10^6 Bacteria [3]: 71%; Percent Viability DMEM ([4]; 1.5 × 10^-5 M): 99.2%; Percent Viability PBS ([4]; 1.5 × 10^-5 M): 92.3%
isnanikisg [Peptide 30]	-- (not active at concentrations of 1.2 × 10^-4 M or less)	450 µM	
qkrflkmsgn [Peptide 33]	-- (not active at concentrations of 1.2 × 10^-4 M or less)	450 µM	
kisgkwkaqk [Peptide 32]	1.25 × 10^-4 M	450 µM	% Killing of 5 × 10^6 Bacteria ([1]; P. aeruginosa, pH 5.6, 1.25 × 10^-4 M): 33%
CC(C)C[C@@H]1NC(=O)[C@H](Cc2ccccc2)NC(=O)[C@H](CCCNC(=N)N)NC(=O)[C@H](CCCCN)NC(=O)[C@H](CCC(N)=O)NC(=O)[C@H](C)NC(=O)[C@H](CCCCN)NC(=O)[C@H](Cc2c[nH]c3ccccc23)NC(=O)[C@H](CCCCN)NC(=O)[C@@H](N)CSSC[C@@H](C(=O)O)NC(=O)[C@H](CCCCN)NC1=O [cyclic 20a]			% Killing of 5 × 10^6 Bacteria ([1]; type 1, 3.0e-5 M, pH 5.6): 89%
kwkfkqralk [Peptide 26]	1.5 × 10^-5 M	300 µM	% Killing of 5 × 10^6 Bacteria [1, 5]: 61%
EFYSENHHNPKWKAQKRFLK [Peptide 18, efysenhhnpkwkaqkrflk]			% Killing of 5 × 10^6 Bacteria ([1]; type 1, 3.0e-5 M, pH 5.6): 79%; Percent Viability DMEM ([4]; 1.5 × 10^-4 M): 98.8%; Percent Viability PBS ([4]; 1.5 × 10^-4 M): 95.6%
nanikisgkwkaqkrflkmsgnfdlsi [Peptide 22]	6.0 × 10^-8 M	30 µM	% Killing of 5 × 10^6 Bacteria ([1]; P. aeruginosa, pH 5.6, 6.0 × 10^-8 M): 74%
